Results as given in patent US4442044A, “Process for preparing monoesters and diesters of N-alkyl substituted amino methyl phosphonic acid” (priority 1983, dated 1984).

What was measured:
Format in all cases: in vivo
Barnyardgrass [1] = assay: post-emergent herbicidal activity, greenhouse
In short: (§1)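 Post-emergence foliar spray at tabulated application rates, using aliquots of a 1.0% stock in acetone, THF or water plus ~0.4% emulsifier, applied to 2–3-week-old greenhouse plants. Plant injury was rated relative to controls roughly two and four weeks after treatment.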

Downy Brome [2] = assay: post-emergent herbicidal activity, greenhouse
In short: as §1

Johnsongrass [3] = assay: post-emergent herbicidal activity, greenhouse; conditions: Table I, 4 WAT
In short: as §1

Lambsquarters [4] = assay: post-emergent herbicidal activity, greenhouse
In short: as §1

Morningglory [5] = assay: post-emergent herbicidal activity, greenhouse
In short: as §1

Panicum Spp = assay: post-emergent herbicidal activity, greenhouse; conditions: Table II
In short: as §1

Rice = assay: post-emergent herbicidal activity, greenhouse; conditions: Table II
In short: as §1

Sorghum = assay: post-emergent herbicidal activity, greenhouse; conditions: Table II
In short: as §1

Wheat = assay: post-emergent herbicidal activity, greenhouse; conditions: Table II
In short: as §1

Wild Buckwheat = assay: post-emergent herbicidal activity, greenhouse; conditions: Table II
In short: as §1

Yellow Nutsedge [6] = assay: post-emergent herbicidal activity, greenhouse; conditions: Table I, 4 WAT
In short: as §1

Barnyardgrass [7] = assay: pre-emergent herbicidal activity, soil incorporation; conditions: Table III, 2 WAT, 11.2 kg/h
In short: (§2)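 Here the herbicide is blended into the top soil layer rather than sprayed, and pans absorb water from below under normal sunlight for around two weeks. Percent control, averaged per species against untreated pans, sets the pre-emergent activity index.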

Canada Thistle = assay: as above; conditions: Table III, 2 WAT, 11.2 kg/h
In short: as §2

Cocklebur = assay: as above; conditions: Table III, 2 WAT, 11.2 kg/h
In short: as §2

Downy Brome [8] = assay: as above; conditions: Table III, 2 WAT, 11.2 kg/h
In short: as §2

Johnsongrass [9] = assay: as above; conditions: Table III, 2 WAT, 11.2 kg/h
In short: as §2

Lambsquarters [10] = assay: as above; conditions: Table III, 2 WAT, 11.2 kg/h
In short: as §2

Morningglory [11] = assay: as above; conditions: Table III, 2 WAT, 11.2 kg/h
In short: as §2

Quackgrass = assay: as above; conditions: Table III, 2 WAT, 11.2 kg/h
In short: as §2

Smartweed = assay: as above; conditions: Table III, 2 WAT, 11.2 kg/h
In short: as §2

Velvetleaf = assay: as above; conditions: Table III, 2 WAT, 11.2 kg/h
In short: as §2

Yellow Nutsedge [12] = assay: as above; conditions: Table III, 2 WAT, 11.2 kg/h
In short: as §2

CC(C#N)OP(=O)(O)CNCC(=O)OCc1ccccc1 (centres unmarked) [Example 10, glycine, N-[[(1-cyanoethoxy)hydroxyphosphinyl]methyl]-,phenylmethyl ester]
4 (100% control): post-emergent herbicidal activity index (Panicum Spp; 4 WAT, 1.12 kg/h) | post-emergent herbicidal activity index (Panicum Spp; 4 WAT, 5.6 kg/h)
0 (0-24% control): post-emergent herbicidal activity index (Barnyardgrass [1]; Table II, 2 WAT, 0.011 kg/h) | post-emergent herbicidal activity index (Barnyardgrass [1]; Table II, 2 WAT, 0.056 kg/h) | post-emergent herbicidal activity index (Downy Brome [2]; Table II, 2 WAT, 0.011 kg/h) | post-emergent herbicidal activity index (Downy Brome [2]; Table II, 2 WAT, 0.056 kg/h) | post-emergent herbicidal activity index (Johnsongrass [3]; 5.6 kg/h) | post-emergent herbicidal activity index (Lambsquarters [4]; Table II, 2 WAT, 0.011 kg/h) | post-emergent herbicidal activity index (Morningglory [5]; Table II, 2 WAT, 0.011 kg/h) | post-emergent herbicidal activity index (Morningglory [5]; Table II, 2 WAT, 0.056 kg/h) | post-emergent herbicidal activity index (Panicum Spp; 2 WAT, 0.011 kg/h) | post-emergent herbicidal activity index (Panicum Spp; 2 WAT, 0.056 kg/h) | post-emergent herbicidal activity index (Rice; 2 WAT, 0.011 kg/h) | post-emergent herbicidal activity index (Rice; 2 WAT, 0.056 kg/h) | post-emergent herbicidal activity index (Rice; 4 WAT, 0.28 kg/h) | post-emergent herbicidal activity index (Sorghum; 2 WAT, 0.011 kg/h) | post-emergent herbicidal activity index (Sorghum; 2 WAT, 0.056 kg/h) | post-emergent herbicidal activity index (Wheat; 2 WAT, 0.011 kg/h) | post-emergent herbicidal activity index (Wheat; 2 WAT, 0.056 kg/h) | post-emergent herbicidal activity index (Wild Buckwheat; 2 WAT, 0.011 kg/h) | post-emergent herbicidal activity index (Wild Buckwheat; 2 WAT, 0.056 kg/h)
1 (25-49% control): post-emergent herbicidal activity index (Downy Brome [2]; Table I, 4 WAT, 11.2 kg/h) | post-emergent herbicidal activity index (Downy Brome [2]; Table II, 4 WAT, 0.28 kg/h) | post-emergent herbicidal activity index (Johnsongrass [3]; 11.2 kg/h) | post-emergent herbicidal activity index (Lambsquarters [4]; Table II, 2 WAT, 0.056 kg/h) | post-emergent herbicidal activity index (Rice; 4 WAT, 1.12 kg/h) | post-emergent herbicidal activity index (Wheat; 4 WAT, 0.28 kg/h) | post-emergent herbicidal activity index (Wild Buckwheat; 4 WAT, 0.28 kg/h) | post-emergent herbicidal activity index (Yellow Nutsedge [6]; 5.6 kg/h) | post-emergent herbicidal activity index (Yellow Nutsedge [6]; 11.2 kg/h)
3 (75-99% control): post-emergent herbicidal activity index (Barnyardgrass [1]; Table I, 4 WAT, 11.2 kg/h) | post-emergent herbicidal activity index (Barnyardgrass [1]; Table II, 4 WAT, 5.6 kg/h) | post-emergent herbicidal activity index (Lambsquarters [4]; Table I, 4 WAT, 5.6 kg/h) | post-emergent herbicidal activity index (Lambsquarters [4]; Table I, 4 WAT, 11.2 kg/h) | post-emergent herbicidal activity index (Lambsquarters [4]; Table II, 4 WAT, 1.12 kg/h) | post-emergent herbicidal activity index (Lambsquarters [4]; Table II, 4 WAT, 5.6 kg/h) | post-emergent herbicidal activity index (Panicum Spp; 4 WAT, 0.28 kg/h) | post-emergent herbicidal activity index (Sorghum; 4 WAT, 5.6 kg/h) | post-emergent herbicidal activity index (Wild Buckwheat; 4 WAT, 5.6 kg/h)
0 (1-24% control): pre-emergent herbicidal activity index (Barnyardgrass [7]) | pre-emergent herbicidal activity index (Cocklebur) | pre-emergent herbicidal activity index (Downy Brome [8]) | pre-emergent herbicidal activity index (Lambsquarters [10]) | pre-emergent herbicidal activity index (Morningglory [11]) | pre-emergent herbicidal activity index (Quackgrass) | pre-emergent herbicidal activity index (Smartweed) | pre-emergent herbicidal activity index (Velvetleaf) | pre-emergent herbicidal activity index (Yellow Nutsedge [12])
3 (75-100% control): pre-emergent herbicidal activity index (Canada Thistle)
2 (50-74% control): post-emergent herbicidal activity index (Barnyardgrass [1]; Table I, 4 WAT, 5.6 kg/h) | post-emergent herbicidal activity index (Barnyardgrass [1]; Table II, 4 WAT, 0.28 kg/h) | post-emergent herbicidal activity index (Barnyardgrass [1]; Table II, 4 WAT, 1.12 kg/h) | post-emergent herbicidal activity index (Downy Brome [2]; Table I, 4 WAT, 5.6 kg/h) | post-emergent herbicidal activity index (Downy Brome [2]; Table II, 4 WAT, 1.12 kg/h) | post-emergent herbicidal activity index (Downy Brome [2]; Table II, 4 WAT, 5.6 kg/h) | post-emergent herbicidal activity index (Lambsquarters [4]; Table II, 4 WAT, 0.28 kg/h) | post-emergent herbicidal activity index (Morningglory [5]; Table I, 4 WAT, 5.6 kg/h) | post-emergent herbicidal activity index (Morningglory [5]; Table I, 4 WAT, 11.2 kg/h) | post-emergent herbicidal activity index (Morningglory [5]; Table II, 4 WAT, 0.28 kg/h) | post-emergent herbicidal activity index (Morningglory [5]; Table II, 4 WAT, 1.12 kg/h) | post-emergent herbicidal activity index (Morningglory [5]; Table II, 4 WAT, 5.6 kg/h) | post-emergent herbicidal activity index (Rice; 4 WAT, 5.6 kg/h) | post-emergent herbicidal activity index (Sorghum; 4 WAT, 0.28 kg/h) | post-emergent herbicidal activity index (Sorghum; 4 WAT, 1.12 kg/h) | post-emergent herbicidal activity index (Wheat; 4 WAT, 1.12 kg/h) | post-emergent herbicidal activity index (Wheat; 4 WAT, 5.6 kg/h) | post-emergent herbicidal activity index (Wild Buckwheat; 4 WAT, 1.12 kg/h) | pre-emergent herbicidal activity index (Johnsongrass [9])
